Our source for the IC50 and GI50 values is US20260365670A1, “EGFR INHIBITORS AND USES THEREOF” (DIZAL (JIANGSU) PHARMACEUTICAL CO., LTD., priority 2022, published 2026).

Usually IC50 stands for the concentration needed to halve the response being measured.

The target of assay [1] is T1, EGFR wild type (Homo sapiens, UniProt P00533).
T1 construct: purchased Carna Bio
Put plainly: Inhibition of EGFR wild type biochemical enzymatic activity (HTRF). Particulars: EGFR WT, 1 mM ATP, 1 h, room temperature, read-out: IC50 (nM) @WT. An outline of the steps: (§1)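 Recombinant kinases phosphorylated 1 μM biotinylated TK substrate with 1 mM ATP in buffer with 5 mM MgCl2, 1 mM MnCl2, 0.01% CHAPS, 1 mM DTT, 0.5% DMSO. Reaction ran 1 h at room temperature, stopped with EDTA-containing detection mix. HTRF 665/615 nm ratio gave IC50 via four-parameter logistic fit.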
For orientation: In TR-FRET formats the signal depends on donor and acceptor labels being close together.

The target in assay [2] is T2, EGFR L858R (Homo sapiens, UniProt P00533, L858R).
T2 construct: purchased Carna Bio
Put plainly: Inhibition of EGFR L858R biochemical enzymatic activity (HTRF). As to conditions: 1 mM ATP, 1 h, room temperature, read-out: IC50 (nM) @L858R. In outline: as §1

Assay [3] addresses T3, EGFR L858R/T790M (Homo sapiens, UniProt P00533, L858R/T790M).
T3 construct: purchased Carna Bio
Description: Inhibition of EGFR L858R/T790M biochemical enzymatic activity (HTRF). Particulars: EGFR L858R-T790M, 1 mM ATP, 1 h, room temperature, read-out: IC50 (nM) @L858R-T790M. An outline of the steps:
as §1

For assay [4], the target named is T4, EGFR Exon19Del (Homo sapiens, UniProt P00533, DEL746-750).
T4 construct: purchased Carna Bio
T4 sequence (P00533 with tags, fused parts or gaps DEL746-750 limits assumed): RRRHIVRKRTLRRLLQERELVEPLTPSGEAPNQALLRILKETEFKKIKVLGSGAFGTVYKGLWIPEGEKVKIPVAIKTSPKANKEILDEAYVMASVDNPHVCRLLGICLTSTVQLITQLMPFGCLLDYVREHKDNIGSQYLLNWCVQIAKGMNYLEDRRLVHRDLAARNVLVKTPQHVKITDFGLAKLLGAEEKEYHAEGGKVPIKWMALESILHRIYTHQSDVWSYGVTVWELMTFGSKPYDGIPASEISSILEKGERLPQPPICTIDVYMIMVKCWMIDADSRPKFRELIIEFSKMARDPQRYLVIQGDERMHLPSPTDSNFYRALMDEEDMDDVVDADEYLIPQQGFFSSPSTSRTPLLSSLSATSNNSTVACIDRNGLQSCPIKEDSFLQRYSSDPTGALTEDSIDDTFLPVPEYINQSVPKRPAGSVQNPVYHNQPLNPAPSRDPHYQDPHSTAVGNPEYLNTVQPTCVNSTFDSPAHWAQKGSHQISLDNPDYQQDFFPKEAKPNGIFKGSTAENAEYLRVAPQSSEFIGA
Description: Inhibition of EGFR Exon19Del biochemical enzymatic activity (HTRF). As to conditions: EGFR Del19, 1 mM ATP, 1 h, room temperature, read-out: IC50 @Del19. An outline of the steps:
as §1

In assay [5] the target is T5, EGFR Exon19Del/T790M (Homo sapiens, UniProt P00533, DEL746-750/T790M).
T5 construct: purchased Carna Bio
T5 sequence (P00533 with tags, fused parts or gaps DEL746-750/T790M limits assumed): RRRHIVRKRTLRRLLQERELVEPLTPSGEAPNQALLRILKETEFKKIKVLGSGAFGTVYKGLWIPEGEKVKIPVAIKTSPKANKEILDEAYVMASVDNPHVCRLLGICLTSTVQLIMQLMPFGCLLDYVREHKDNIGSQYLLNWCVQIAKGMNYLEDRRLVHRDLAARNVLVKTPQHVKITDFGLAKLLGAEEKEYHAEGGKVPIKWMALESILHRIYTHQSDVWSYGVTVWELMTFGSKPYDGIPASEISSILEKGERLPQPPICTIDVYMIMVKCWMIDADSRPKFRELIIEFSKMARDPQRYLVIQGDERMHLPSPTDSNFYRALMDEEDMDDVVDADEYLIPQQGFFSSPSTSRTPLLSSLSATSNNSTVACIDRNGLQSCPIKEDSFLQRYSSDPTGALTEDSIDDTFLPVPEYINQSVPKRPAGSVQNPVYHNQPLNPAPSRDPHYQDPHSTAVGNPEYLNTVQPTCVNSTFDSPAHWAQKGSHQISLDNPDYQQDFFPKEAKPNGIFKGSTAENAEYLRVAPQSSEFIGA
Put plainly: Inhibition of EGFR Exon19Del/T790M biochemical enzymatic activity (HTRF). As to conditions: EGFR Del19-T790M, 1 mM ATP, 1 h, room temperature, read-out: IC50 (nM) @Del19-T790M. In outline:
as §1

For assay [6], the target named is T6, EGFR[T790M/C797S/L858R] (Homo sapiens, UniProt P00533, C797S/L858R/T790M).
T6 construct: purchased Carna Bio
Description: Inhibition of EGFR[T790M/C797S/L858R] biochemical enzymatic activity (HTRF). Particulars: EGFR T790M-C797S-L858R, 1 mM ATP, 1 h, room temperature, read-out: IC50 (nM) @T790M- C797S - L858R. An outline of the steps:
as §1

For assay [7], the target named is T7, EGFR[T790M/C797S/d746-750] (Homo sapiens, UniProt P00533, C797S/DEL746-750/T790M).
T7 construct: purchased Carna Bio
Put plainly: Inhibition of EGFR[T790M/C797S/d746-750] biochemical enzymatic activity (HTRF). Particulars: EGFR T790M-C797S-Del19, 1 mM ATP, 1 h, room temperature, read-out: IC50 (nM) @T790M - C797S - Del19. An outline of the steps:
as §1

The target of assay [8] is T8, EGFR (d746-750 C797S) (Homo sapiens, UniProt P00533, C797S/DEL746-750).
T8 construct: purchased signalchem
Description: Inhibition of EGFR (d746-750 C797S) biochemical enzymatic activity (HTRF). Particulars: EGFR Del19-C797S, 1 mM ATP, 1 h, room temperature, read-out: IC50 (nM) @Del19-C797S. In outline:
as §1

In assay [9] the target is T9, EGFR (C797S L858R) (Homo sapiens, UniProt P00533, C797S/L858R).
T9 construct: purchased signalchem
T9 sequence (P00533 25-1210 C797S/L858R): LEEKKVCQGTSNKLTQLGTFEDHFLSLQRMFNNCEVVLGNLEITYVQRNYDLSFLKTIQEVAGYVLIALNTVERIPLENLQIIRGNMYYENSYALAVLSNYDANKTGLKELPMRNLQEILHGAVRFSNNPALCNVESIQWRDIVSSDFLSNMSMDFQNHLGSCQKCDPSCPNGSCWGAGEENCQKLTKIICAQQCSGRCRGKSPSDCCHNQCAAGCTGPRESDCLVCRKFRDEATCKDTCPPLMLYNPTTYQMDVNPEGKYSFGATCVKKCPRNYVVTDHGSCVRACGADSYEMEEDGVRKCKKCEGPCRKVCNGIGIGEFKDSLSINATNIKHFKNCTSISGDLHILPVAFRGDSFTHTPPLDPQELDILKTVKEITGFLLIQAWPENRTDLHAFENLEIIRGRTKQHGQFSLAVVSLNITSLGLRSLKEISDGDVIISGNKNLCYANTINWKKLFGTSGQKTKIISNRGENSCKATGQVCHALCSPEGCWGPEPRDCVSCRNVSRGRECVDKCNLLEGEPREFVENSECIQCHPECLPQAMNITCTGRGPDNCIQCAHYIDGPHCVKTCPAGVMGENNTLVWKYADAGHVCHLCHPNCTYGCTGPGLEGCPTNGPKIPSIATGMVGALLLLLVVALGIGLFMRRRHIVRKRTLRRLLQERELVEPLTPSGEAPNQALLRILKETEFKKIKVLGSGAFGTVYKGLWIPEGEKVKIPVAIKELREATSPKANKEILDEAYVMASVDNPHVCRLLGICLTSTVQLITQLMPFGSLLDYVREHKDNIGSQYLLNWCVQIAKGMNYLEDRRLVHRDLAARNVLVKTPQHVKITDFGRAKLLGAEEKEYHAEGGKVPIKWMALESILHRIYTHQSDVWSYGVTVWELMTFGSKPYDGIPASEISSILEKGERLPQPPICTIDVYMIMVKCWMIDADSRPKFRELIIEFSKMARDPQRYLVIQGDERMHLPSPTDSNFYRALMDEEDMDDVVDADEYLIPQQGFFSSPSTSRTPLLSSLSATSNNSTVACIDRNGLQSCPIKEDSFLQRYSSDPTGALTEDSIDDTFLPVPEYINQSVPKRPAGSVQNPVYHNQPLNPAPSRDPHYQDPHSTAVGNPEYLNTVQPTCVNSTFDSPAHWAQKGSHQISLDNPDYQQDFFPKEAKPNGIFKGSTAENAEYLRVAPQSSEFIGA
Description: Inhibition of EGFR (C797S L858R) biochemical enzymatic activity (HTRF). As to conditions: EGFR L858-C797S, 1 mM ATP, 1 h, room temperature, read-out: IC50 (nM) @L858-C797S. In outline: as §1

Assay [10] relates to Ba/F3 cells expressing EGFR mutations. Description: Cell proliferation assay, Ba/F3 cells expressing EGFR mutations (CellTiter-Glo, 72 hours). As to conditions: CellTiter-Glo. The class given is cell-based. An outline of the steps: (§2)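 Seed Ba/F3 at 5000 cells/well and PC-9 at 500 cells/well (10% FBS RPMI1640); incubate overnight; add compound dilution series; read a G0 plate; incubate; read G3; GI50 from best-fit curve.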
Background: In ATP-based viability assays light output follows the ATP content of the culture.

The test system of assay [11] is PC-9. Description: Cell proliferation assay, PC-9 cells (CellTiter-Glo, 72 hours). The class given is cell-based. Particulars: PC9 cells, CellTiter-Glo, read-out: PC9 GI50. In outline: as §2
The test system of assay [12] is A-431. Description: Cell proliferation GI50, A-431 cells (Table 6). The class given is cell-based.
The mark [13] stands for this setting: Mus musculus, BaF3, 72 h, BaF3 cells, EGFR DEL19-C797S, read-out: DEL19-C797S/BaF3 GI50.
[14] abbreviates: Mus musculus, BaF3, 72 h, BaF3 cells, EGFR DEL19-T790-C797S, read-out: DEL19-T790-C797S/BaF3 GI50.
The mark [15] stands for this setting: Mus musculus, BaF3, 72 h, BaF3 cells, EGFR L858R, read-out: L858R/BaF3 GI50.
The mark [16] stands for this setting: Mus musculus, BaF3, 72 h, BaF3 cells, EGFR L858R-C797S, read-out: L858R-C797S/BaF3 GI50.
Setting [17] is: Mus musculus, BaF3, 72 h, BaF3 cells, EGFR L858R-T790-C797S, read-out: L858R-T790-C797S/BaF3 GI50.
Where [18] appears, read: Mus musculus, BaF3, 72 h, BaF3 cells, EGFR L858R-T790M, read-out: L858R-T790M/BaF3 GI50.
Setting [19] is: Mus musculus, BaF3, 72 h, EGFR DEL19-T790M, read-out: DEL19-T790M GI50.
[20] abbreviates: Homo sapiens, A-431, A-431 cells.

Structures are written as SMILES. Where two headings read alike, the source gives them in different places. Bounds are passed on as bounds.

T3 sequence (P00533 25-1210 T790M/L858R): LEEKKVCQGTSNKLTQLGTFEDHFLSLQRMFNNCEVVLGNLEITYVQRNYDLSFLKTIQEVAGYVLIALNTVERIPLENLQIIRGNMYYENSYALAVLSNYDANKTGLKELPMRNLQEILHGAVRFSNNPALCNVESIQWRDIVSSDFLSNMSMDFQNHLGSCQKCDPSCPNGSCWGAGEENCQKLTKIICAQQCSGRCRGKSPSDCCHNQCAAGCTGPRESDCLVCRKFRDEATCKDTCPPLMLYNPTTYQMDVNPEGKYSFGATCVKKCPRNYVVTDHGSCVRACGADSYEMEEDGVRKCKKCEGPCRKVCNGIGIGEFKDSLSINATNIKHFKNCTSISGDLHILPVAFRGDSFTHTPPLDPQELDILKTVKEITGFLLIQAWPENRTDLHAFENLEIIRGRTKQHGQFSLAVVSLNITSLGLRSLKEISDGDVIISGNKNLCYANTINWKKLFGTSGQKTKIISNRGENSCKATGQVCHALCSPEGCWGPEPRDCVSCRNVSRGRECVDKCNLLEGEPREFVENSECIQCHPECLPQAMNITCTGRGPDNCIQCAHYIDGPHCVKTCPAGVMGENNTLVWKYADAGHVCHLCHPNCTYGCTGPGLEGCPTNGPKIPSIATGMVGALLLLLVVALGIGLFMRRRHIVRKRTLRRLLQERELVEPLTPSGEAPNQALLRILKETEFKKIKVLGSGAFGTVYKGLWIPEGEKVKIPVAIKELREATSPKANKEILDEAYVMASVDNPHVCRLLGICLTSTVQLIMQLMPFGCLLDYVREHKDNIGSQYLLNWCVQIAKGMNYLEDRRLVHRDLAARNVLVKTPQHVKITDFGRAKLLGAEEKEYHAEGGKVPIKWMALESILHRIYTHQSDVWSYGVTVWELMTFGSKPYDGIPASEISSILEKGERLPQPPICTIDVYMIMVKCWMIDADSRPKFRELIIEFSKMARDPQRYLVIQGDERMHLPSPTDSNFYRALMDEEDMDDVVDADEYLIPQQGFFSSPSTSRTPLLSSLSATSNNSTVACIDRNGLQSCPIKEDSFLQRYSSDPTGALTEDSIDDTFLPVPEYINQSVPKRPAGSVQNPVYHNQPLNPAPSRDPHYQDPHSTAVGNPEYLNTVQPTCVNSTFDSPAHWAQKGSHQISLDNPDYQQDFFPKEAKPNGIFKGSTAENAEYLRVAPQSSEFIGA
T1 sequence (P00533 25-1210): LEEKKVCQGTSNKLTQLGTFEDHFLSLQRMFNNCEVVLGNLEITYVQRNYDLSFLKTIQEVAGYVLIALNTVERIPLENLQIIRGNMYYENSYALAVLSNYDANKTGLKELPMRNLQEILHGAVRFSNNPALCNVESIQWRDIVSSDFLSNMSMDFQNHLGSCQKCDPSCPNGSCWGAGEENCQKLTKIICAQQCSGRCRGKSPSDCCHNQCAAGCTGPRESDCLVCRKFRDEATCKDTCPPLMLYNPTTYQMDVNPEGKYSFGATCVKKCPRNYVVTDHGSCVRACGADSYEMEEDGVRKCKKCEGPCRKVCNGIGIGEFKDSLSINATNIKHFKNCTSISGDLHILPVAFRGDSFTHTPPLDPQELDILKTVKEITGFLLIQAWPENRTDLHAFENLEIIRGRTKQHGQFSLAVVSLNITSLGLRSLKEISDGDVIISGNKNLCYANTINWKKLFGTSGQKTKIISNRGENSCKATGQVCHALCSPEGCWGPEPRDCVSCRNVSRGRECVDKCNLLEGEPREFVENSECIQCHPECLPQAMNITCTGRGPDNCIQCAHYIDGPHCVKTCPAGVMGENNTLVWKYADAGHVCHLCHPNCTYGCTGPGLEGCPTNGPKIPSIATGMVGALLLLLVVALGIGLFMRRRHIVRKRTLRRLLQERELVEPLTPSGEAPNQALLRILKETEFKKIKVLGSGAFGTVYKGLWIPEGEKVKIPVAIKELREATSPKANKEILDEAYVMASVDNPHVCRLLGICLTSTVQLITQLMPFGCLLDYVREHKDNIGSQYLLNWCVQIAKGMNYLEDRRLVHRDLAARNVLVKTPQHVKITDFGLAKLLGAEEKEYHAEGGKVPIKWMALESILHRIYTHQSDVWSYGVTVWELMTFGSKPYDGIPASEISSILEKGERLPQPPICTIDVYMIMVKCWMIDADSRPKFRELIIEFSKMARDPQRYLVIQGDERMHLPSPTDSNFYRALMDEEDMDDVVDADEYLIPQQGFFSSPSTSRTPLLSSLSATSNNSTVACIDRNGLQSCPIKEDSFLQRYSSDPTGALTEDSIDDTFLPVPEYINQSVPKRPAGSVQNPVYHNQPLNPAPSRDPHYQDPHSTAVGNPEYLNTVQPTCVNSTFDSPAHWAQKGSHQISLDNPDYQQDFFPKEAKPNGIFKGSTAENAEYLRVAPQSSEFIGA

On to `CC(C)N1CCN(c2ccc3nc4n(c3c2)C23CCC(CN(CCOc5c(cnn5C)-c5cc(cn(C)c5=O)C(=O)N4)C2)C3)CC1` (single isomer, unassigned) [Example A108B], for which the half-inhibitory concentration (IC50) stood at 7.7 nM in [1]; 1.9 nM in [2]; 1.3 nM in assay [3]; 1 nM in [4]; 1.7 nM in [5]; 1.1 nM in assay [6]. Also, the half-maximal inhibitory concentration (IC50) in assay [7] came out at 1.4 nM; in assay [8] it was 0.77 nM; in assay [9], 1.5 nM. The GI50 in assay [10] (BaF3 cells, EGFR DEL19-C797S, read-out: DEL19-C797S/BaF3 GI50) amounted to 0.67 nM; in [10] (BaF3 cells, EGFR DEL19-T790-C797S, read-out: DEL19-T790-C797S/BaF3 GI50), 1 nM; in assay [10] (BaF3 cells, EGFR L858R, read-out: L858R/BaF3 GI50), 1 nM; in assay [10] (BaF3 cells, EGFR L858R-C797S, read-out: L858R-C797S/BaF3 GI50), 1.1 nM; in [10] (BaF3 cells, EGFR L858R-T790-C797S, read-out: L858R-T790-C797S/BaF3 GI50), 1.2 nM; in assay [10] (BaF3 cells, EGFR L858R-T790M, read-out: L858R-T790M/BaF3 GI50), 3.9 nM. Besides, the GI50 came out at 1.3 nM in assay [10] (EGFR DEL19-T790M, read-out: DEL19-T790M GI50); 4.6 nM in assay [11]; 320 nM in assay [12] (A-431 cells).
On to `Cn1ncc2c1OCCN(CC(F)(F)F)CCn1c(nc3ccccc31)NC(=O)c1cc-2c(=O)n(C)c1` [Example A1, 5,26-Dimethyl-10-(2,2,2-trifluoroethyl)-7-oxa-4,5,10,13,20,22,26-heptaazapentacyclo[22.3.1.0^{2,6}.0^{13,21}.0^{14,19}]octacosa-1(28),2(6),3,14,16,18,20,24-octaene-23,27-dione], for which the IC50 was 3550 nM in [1]; 197 nM in assay [2]; 120 nM in assay [3]; 81 nM in assay [4]; 47 nM in [5]; 121 nM in [6]. Moreover, the values for the half-inhibitory concentration (IC50) in assay [7], in assay [8] and in assay [9] were 26 nM, 53 nM and 120 nM, respectively. Also, the GI50 was found to be 22 nM in assay [10] (setting [13]); 170 nM in [10] (setting [14]); 6.1 nM in assay [10] (setting [15]); 21 nM in assay [10] (setting [16]); 27 nM in assay [10] (setting [17]); 60 nM in [10] (setting [18]). The GI50 in assay [10] (setting [19]) amounted to 114 nM; in [11] (Homo sapiens, PC-9, 72 h), 68 nM; in [12] (setting [20]), 3570 nM.
On to `CN1CCN(c2ccc3nc4n(c3c2)CCN(CC(F)(F)F)CCOc2c(cnn2C2CC2)-c2cc(cn(C)c2=O)C(=O)N4)CC1` [Example A2, 5-Cyclopropyl-26-methyl-16-(4-methylpiperazin-1-yl)-10-(2,2,2-trifluoroethyl)-7-oxa-4,5,10,13,20,22,26-heptaazapentacyclo[22.3.1.0^{2,6}.0^{13,21}.0^{14,19}]octacosa-1(28),2(6),3,14,16,18,20,24-octaene-23,27-dione], for which the IC50 in assay [1] amounted to 52 nM; in assay [2] it was 5 nM; in [3] it was 4.3 nM; in assay [4], 3.5 nM; in [5], 4.8 nM; in [6], 3.4 nM. The half-maximal inhibitory concentration (IC50) in assay [7] came out at 3.7 nM; in [8] it was 3.7 nM; in assay [9], 4.1 nM. Besides, the GI50 was found to be 5.8 nM in [10] (setting [13]); 30 nM in assay [10] (setting [14]); 3.7 nM in assay [10] (setting [15]); 5.2 nM in assay [10] (setting [16]); 6.7 nM in [10] (setting [17]); 5.5 nM in assay [10] (setting [18]). In addition, the GI50 in assay [10] (setting [19]) is 33 nM; in [11] (Homo sapiens, PC-9, 72 h), 80 nM; in [12] (setting [20]) it was 1010 nM.
For `CN1CCN(c2ccc3nc4n(c3c2)CCN(CC(F)(F)F)CCOc2c(cnn2C)-c2cc(cn(C)c2=O)C(=O)N4)CC1` [Example A3, 5,26-Dimethyl-16-(4-methylpiperazin-1-yl)-10-(2,2,2-trifluoroethyl)-7-oxa-4,5,10,13,20,22,26-heptaazapentacyclo[22.3.1.0^{2,6}.0^{13,21}.0^{14,19}]octacosa-1(28),2(6),3,14,16,18,20,24-octaene-23,27-dione], the IC50 in assay [1] worked out at 104 nM; in assay [2] it was 13 nM; in assay [3] it was 12 nM; in [4], 12 nM; in [5], 9.3 nM; in assay [6], 8.5 nM. In addition, the values for the IC50 in assay [7], in [8] and in [9] were 8.9 nM, 6.7 nM and 10 nM, respectively. Further, the GI50 in assay [10] (setting [13]) amounted to 16 nM; in [10] (setting [14]) it was 124 nM; in [10] (setting [15]), 9.7 nM; in assay [10] (setting [16]), 11 nM; in [10] (setting [17]), 22 nM; in assay [10] (setting [18]), 30 nM. Besides, the GI50 in [10] (setting [19]) stood at 128 nM; in assay [11] (Homo sapiens, PC-9, 72 h), 236 nM; in [12] (setting [20]) it was 1290 nM.
For `Cn1ncc2c1OCCN(C1COC1)CCn1c(nc3ccccc31)NC(=O)c1cc-2c(=O)n(C)c1` [Example A5, 5,26-Dimethyl-10-(oxetan-3-yl)-7-oxa-4,5,10,13,20,22,26-heptaazapentacyclo[22.3.1.0^{2,6}.0^{13,21}.0^{14,19}]octacosa-1(28),2(6),3,14,16,18,20,24-octaene-23,27-dione], the IC50 is above 5000 nM in [1]; above 5000 nM in assay [2]; above 5000 nM in assay [3]; 849 nM in [4]; 704 nM in assay [5]; above 5000 nM in assay [6]. The IC50 is 560 nM in [7], 628 nM in assay [8] and above 5000 nM in assay [9]. For the same compound, the GI50 turned out to be 392 nM in [10] (setting [13]); 1160 nM in assay [10] (setting [14]); 454 nM in [10] (setting [15]); 764 nM in assay [10] (setting [16]); 859 nM in assay [10] (setting [17]); 961 nM in assay [10] (setting [18]). For the same compound, the GI50 in assay [10] (setting [19]) came out at 747 nM; in assay [11] (Homo sapiens, PC-9, 72 h), 482 nM; in assay [12] (setting [20]), 2870 nM.
